Where two headings read alike, the source gives them in different places.
How the values were obtained:
human RORγ = target: T1, human RORγ (Homo sapiens, UniProt P51449); assay: In vitro assay of inhibitory effect against RORγ transcriptional activity (GAL4-hRORγ LBD luciferase reporter gene assay in CHO cells); type: cell-based; settings: for hRORγ luciferase activity, %-of-control: value in parentheses beside the EC50 bound, vehicle-control 0.2% DMSO alone = 100%
T1 construct: human RORγ, from Ser253 to Lys518; expressed in transfected cells; host or cells: CHO cells (Chinese hamster ovary), transient co-transfection with pG5-Luc
T1 sequence (P51449 253-518): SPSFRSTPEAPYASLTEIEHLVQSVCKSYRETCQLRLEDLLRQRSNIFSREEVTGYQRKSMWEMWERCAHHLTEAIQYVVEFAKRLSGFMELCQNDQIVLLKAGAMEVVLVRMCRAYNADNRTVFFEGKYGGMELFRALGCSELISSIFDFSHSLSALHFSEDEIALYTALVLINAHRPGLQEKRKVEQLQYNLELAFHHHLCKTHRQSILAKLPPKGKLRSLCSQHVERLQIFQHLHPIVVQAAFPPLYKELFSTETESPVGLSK
Summary of the method: (§1)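 Transcriptional activity of human or mouse RORγ LBD, tethered to the GAL4 DNA-binding domain, is monitored by a GAL4-dependent firefly luciferase reporter in transiently transfected CHO cells. Test articles are incubated for 2 days; values are %-of-control or fitted EC50.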

mouse RORγ = target: T2, mouse RORγ (Mus musculus, UniProt P51450); assay: In vitro assay of inhibitory effect against RORγ transcriptional activity (GAL4-mRORγ LBD luciferase reporter gene assay in CHO cells); type: cell-based; settings: for mRORγ luciferase activity, %-of-control: value in parentheses beside the EC50 bound, vehicle-control 0.2% DMSO alone = 100%
T2 construct: mouse RORγ, from Ile251 to Lys516; expressed in transfected cells; host or cells: CHO cells (Chinese hamster ovary), transient co-transfection with pG5-Luc
T2 sequence (P51450 251-516): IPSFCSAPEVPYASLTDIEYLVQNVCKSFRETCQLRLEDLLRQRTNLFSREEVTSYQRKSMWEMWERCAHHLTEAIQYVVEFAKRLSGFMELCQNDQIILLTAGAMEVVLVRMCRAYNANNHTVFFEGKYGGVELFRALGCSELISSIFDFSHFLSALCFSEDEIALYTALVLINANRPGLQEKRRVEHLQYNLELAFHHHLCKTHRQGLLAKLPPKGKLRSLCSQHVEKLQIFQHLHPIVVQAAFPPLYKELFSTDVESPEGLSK
Summary of the method: as §1

[1] = GAL4-hRORγ LBD luciferase reporter, CHO cells, read-out: LUC EC50 hRORγ
[2] = GAL4-mRORγ LBD luciferase reporter, CHO cells, read-out: LUC EC50 mRORγ
[3] = GAL4-hRORγ LBD / pG5-Luc in CHO cells, 2 days incubation
[4] = GAL4-mRORγ LBD / pG5-Luc in CHO cells, 2 days incubation

| Compound | EC50 (human RORγ; [1]) [nM] | hRORγ luciferase activity, %-of-control (human RORγ) | EC50 (mouse RORγ; [2]) [nM] | mRORγ luciferase activity, %-of-control (mouse RORγ) | EC50 (human RORγ; [3]) [nM] | EC50 (mouse RORγ; [4]) [nM] |
| --- | --- | --- | --- | --- | --- | --- |
| CC(C)CS(=O)(=O)c1ccc([C@]2(C)NC(=O)N(CCC(=O)O)C=C2C(C)C)cc1Cl [Example 219] | > 20000 | (88%) | > 20000 | (86%) |  |  |
| CC(C)C1=CN(c2ccc(C(=O)O)cc2)C(=O)N[C@@]1(C)c1ccc(CCC(C)(C)C)c(F)c1 [Example 356] | 21 |  | 15 |  |  |  |
| CC(C)C1=CN(C2CCC(C(=O)O)C2)C(=O)N[C@@]1(C)c1ccc(CCC(C)(C)C)c(Cl)c1 (single isomer, unassigned) [Example 280] | 26 |  | 42 |  |  |  |
| COc1cc([C@]2(C)NC(=O)N(CCC(=O)O)C=C2C(C)C)ccc1CCC(C)(C)C [Example 213] | 131 |  | 56 |  |  |  |
| COCCN1C=C(c2cnn(C(C)(C)C(=O)O)c2)[C@](C)(c2ccc(CCC(C)(C)C)c(Cl)c2)NC1=O [Example 296] | 3720 |  | 4530 |  |  |  |
| CC1=CN(CCCC(=O)O)C(=O)N[C@@]1(C)c1ccc(CCC(C)(C)C)c(Cl)c1 [Example 61] |  |  |  |  | 143 | 46 |
| CC(C)(C)C1=CN(CCC(=O)O)C(=O)N[C@@]1(C)c1ccc(CC2CCCCC2)c(Cl)c1 [Example 339] | 17 |  | 15 |  |  |  |
| CC(C)OCc1ccc([C@]2(C)NC(=O)N(CCC(=O)O)C=C2C(C)C)cc1Cl [Example 157] |  |  |  |  | 497 | 255 |
| COCCC1=CN([C@H]2CC[C@H](C(=O)O)CC2)C(=O)N[C@@]1(C)c1ccc(CCC(C)(C)C)c(C(F)(F)F)c1 [Example 325] | 174 |  | 60 |  |  |  |
| COCCC1=CN(c2ccc(C(=O)O)cc2)C(=O)N[C@@]1(C)c1ccc(CC2CCCCC2)c(Cl)c1 [Example 336] | 10 |  | 7 |  |  |  |
| COc1cc(C(=O)O)ccc1N1C=C(C(C)C)[C@](C)(c2ccc(CCC(C)(C)C)c(Cl)c2)NC1=O [Example 221] | 25 |  | 24 |  |  |  |
| CC(C)C1=CN(CCC(=O)O)C(=O)N[C@@]1(C)c1ccc([S+]([O-])C2CCCC2)c(Cl)c1 (mixture of isomers) [Example 223] | > 20000 | (78%) | > 20000 | (70%) |  |  |
| CC(C)C1=CN([C@H]2CC[C@H](C(=O)O)CC2)C(=O)N[C@]1(C)c1ccc(CCC(C)(C)C)c(Cl)c1 [Example 78] |  |  |  |  | 6490 | 10800 |
| CC(C)C1=CN(CCC(=O)O)C(=O)N[C@@]1(C)c1ccc(C2CC2C(C)C)c(Cl)c1 (single isomer, unassigned) [Example 174] |  |  |  |  | 14 | 11 |

From patent publication US10196363B2, “Dihydropyrimidin-2-one compounds and medical use thereof” (JAPAN TOBACCO INC., priority 2014, dated 2019)
